Laboratory results from patent US9302999B2, “Substituted triazoles as herbicides” (E. I. DU PONT DE NEMOURS AND COMPANY, priority 2012, dated 2016).

Test system: rice (Oryza sativa)
Assay: Test B flooded paddy: rice
Type: in vivo
Details: Flood, applied to paddy water at 2-leaf stage, visually evaluated after 13 to 15 days
Procedure, shortened: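 Paddy-water application: seedlings at 2-leaf stage, flood depth 3 cm maintained for the test duration. Evaluation after 13–15 days in the greenhouse by eye relative to controls; 0–100 scale.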

| SMILES | Plant response rating, Rice (0 to 100 scale, 0 is no effect, 100 is complete control) (250 g ai/ha) | Plant response rating, Rice (0 to 100 scale, 0 is no effect, 100 is complete control) (125 g ai/ha) |
| --- | --- | --- |
| CCCc1nn(-c2ccc(F)cc2)nc1Cc1ccnc(C(F)(F)F)c1 [Compound 153] | 60 | – |
| Cc1nn(-c2ccc(C(F)(F)F)c(F)c2)nc1Cc1ccnc(C(F)(F)F)c1 [Compound 162] | – | 25 |
| CCc1nn(-c2ccc(F)cc2)nc1Oc1ccnc(C(F)(F)F)c1 [Compound 166] | – | 80 |
| CCCc1nn(-c2ccc(C(F)(F)F)c(F)c2)nc1Oc1ccnc(C(F)(F)F)c1 [Compound 185] | 65 | – |
| CCOc1nn(-c2ccc(Br)cc2)nc1Cc1ccnc(C(F)(F)F)c1 [Compound 189] | – | 35 |
